Our source for the inhibition and GI50 values is patent publication US8933070B2, “Methods of targeting PTEN mutant diseases and compositions therefor” (University Health Network, priority 2010, dated 2015).

The target in experiment [1] is T1, PLK1 (Homo sapiens, UniProt P53350).
T1 construct: purchased Invitrogen PV3501
Description: PLK1 inhibition assay (Z-Lyte). In kind it is biochemical. Particulars: dose of 10 μM; read-out: PLK1 relative inhibition percentage.
Description: PLK1 inhibition was determined using the Z-Lyte assay kit from Invitrogen (cat#PV3802). The assay was performed using the recommended manufacturer's instructions with 25 μM ATP and 8 nM PLK1 (Invitrogen cat #PV3501). The % inhibition values were determined according to the manufacturer's directions and IC50 values were obtained using a non-linear 4 point logistic curve fit (XLfit4, IDBS)

The target of experiment [2] is T2, PLK2 (Homo sapiens, UniProt Q9NYY3).
T2 construct: purchased Invitrogen PV4204
T2 sequence (Q9NYY3 whole entry): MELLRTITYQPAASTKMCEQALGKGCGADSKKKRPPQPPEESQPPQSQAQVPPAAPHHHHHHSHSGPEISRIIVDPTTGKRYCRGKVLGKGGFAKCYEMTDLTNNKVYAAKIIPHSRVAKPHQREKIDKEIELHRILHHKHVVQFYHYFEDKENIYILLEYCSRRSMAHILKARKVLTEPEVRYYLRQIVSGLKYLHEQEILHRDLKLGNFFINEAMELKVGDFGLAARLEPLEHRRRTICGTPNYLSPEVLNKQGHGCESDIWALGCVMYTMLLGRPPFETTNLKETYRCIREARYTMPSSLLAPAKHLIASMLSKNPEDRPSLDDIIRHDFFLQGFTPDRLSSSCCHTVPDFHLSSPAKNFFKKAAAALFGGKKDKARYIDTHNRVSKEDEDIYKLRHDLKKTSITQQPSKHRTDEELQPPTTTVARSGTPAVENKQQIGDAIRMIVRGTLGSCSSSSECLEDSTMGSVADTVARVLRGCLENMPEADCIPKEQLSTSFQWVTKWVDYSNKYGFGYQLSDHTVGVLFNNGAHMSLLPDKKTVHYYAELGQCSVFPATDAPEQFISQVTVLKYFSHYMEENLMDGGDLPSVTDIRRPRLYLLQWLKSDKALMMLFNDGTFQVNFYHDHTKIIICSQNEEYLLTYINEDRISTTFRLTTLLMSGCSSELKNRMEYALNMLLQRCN
Description: PLK2 inhibition assay (Z-Lyte). In kind it is biochemical. The settings on record: dose of 10 μM; read-out: PLK2 relative inhibition percentage. The method, then:
PLK2 inhibition was determined using the Z-Lyte assay kit from Invitrogen (cat# PV3802). The assay was performed using the recommended manufacturer's instructions with 60 μM ATP and 133 nM PLK2 (Invitrogen cat #PV4204). The % inhibition values were determined according to the manufacturer's directions and IC50 values were obtained using a non-linear 4 point logistic curve fit (XLfit4, IDBS)

For experiment [3], the system named is HCT116 p53^+/+ colon cancer cell line. Description: Cell growth inhibition, SRB assay, extended panel. In kind it is cell-based. Particulars: Homo sapiens, HCT-116, read-out: GI50 Range HCT116 p53^+/+. The method, then:
(§1) Breast cancer cells (MCF-7, MDA-MB-468 and HCC1954), colon cancer cells (SW620) and lung cancer cells (A549), together with human mammary epithelial primary cells (HMEC) were seeded (1000 to 4000 per 80 μl per well depending on the cell growth rate) into 96-well plates 24 hours before compound overlay. Compounds were prepared as 10 mM stock solutions in 100% DMSO which were diluted with DMEM (Dulbecco's Modified Eagle's Medium) cell growth Medium (Invitrogen, Canada) containing 10% FBS (Fetal Bovine Serum) to concentrations ranging from 50 nM to 250 μM. Aliquots (20 μl) from each concentration were overlaid to 80 μl of the pre-seeded cells in the 96-plates to make final concentrations of 10 nM to 50 μM. The cells were cultured for 5 days before the Sulforhodamine B (SRB) assay was performed to determine the compound's cell growth inhibition activity.
(§2) Sulforhodamine B (Sigma, Canada) is a water-soluble dye that binds to the basic amino acids of cellular proteins. Thus, colorimetric measurement of the bound dye provides an estimate of the total protein mass that is related to the cell number. The cells are fixed in situ by gently aspirating off the culture media and adding 50 μl ice cold 10% Trichloroacetic Acid (TCA) per well and incubated at 4° C. for 30-60 min. The plates are washed with water five times and allowed to air dry for 5 min. Addition of 50 μl 0.4% (w/v) SRB solution in 1% (v/v) acetic acid to each well and incubatation for […] at RT completes the staining reaction. Following staining, plates are washed four times with 1% acetic acid to remove unbound dye and then allowed to air dry for 5 min. The stain is solubilized with 100 μl of 10 mM Tris pH 10.5 per well. Absorbance is read at 570 nm.
(§3) The percentage (%) of relative growth inhibition was calculated by comparing to DMSO-treated only cells (100%). GI50's were determined for compounds with cytotoxic activity. The GI50 was calculated using GraphPad PRISM software (GraphPad Software, Inc., USA).
(§4) In addition to the cell lines tested as described above, selected compounds have been assayed against an extended panel. These include: breast cancer cell lines (T-47D, MDA-MB-231, Hs578T, 8T-474, SKBr-3 and HCC1954), a lung cancer cell line (H358), brain cancer cell lines (A172, Hs683 and SK-N-SH), colon cancer cell lines (Colo 205, HCT-15, HCT116 p53^+/+ and HCT116 p53^−/−), ovarian cancer cell lines (OVCAR-3, SK-OV-3 and SW626), a melanoma cell line (518A2), a prostate cancer cell line (PC-3) and an immortalized breast cell line (184A1). The SRB assay described above was used to assay test compounds against the extended panel (Table 6).
(In general: Sulforhodamine B stains cellular protein and so reports cell mass.)

The test system of experiment [4] is HCT116 p53^−/− colon cancer cell line. Description: Cell growth inhibition, SRB assay, extended panel. Format: cell-based. The settings on record: Homo sapiens, HCT-116, read-out: GI50 Range HCT116 p53^−/−. Here is the method: as §1, §2, §3, §4

T1 sequence (P53350 whole entry): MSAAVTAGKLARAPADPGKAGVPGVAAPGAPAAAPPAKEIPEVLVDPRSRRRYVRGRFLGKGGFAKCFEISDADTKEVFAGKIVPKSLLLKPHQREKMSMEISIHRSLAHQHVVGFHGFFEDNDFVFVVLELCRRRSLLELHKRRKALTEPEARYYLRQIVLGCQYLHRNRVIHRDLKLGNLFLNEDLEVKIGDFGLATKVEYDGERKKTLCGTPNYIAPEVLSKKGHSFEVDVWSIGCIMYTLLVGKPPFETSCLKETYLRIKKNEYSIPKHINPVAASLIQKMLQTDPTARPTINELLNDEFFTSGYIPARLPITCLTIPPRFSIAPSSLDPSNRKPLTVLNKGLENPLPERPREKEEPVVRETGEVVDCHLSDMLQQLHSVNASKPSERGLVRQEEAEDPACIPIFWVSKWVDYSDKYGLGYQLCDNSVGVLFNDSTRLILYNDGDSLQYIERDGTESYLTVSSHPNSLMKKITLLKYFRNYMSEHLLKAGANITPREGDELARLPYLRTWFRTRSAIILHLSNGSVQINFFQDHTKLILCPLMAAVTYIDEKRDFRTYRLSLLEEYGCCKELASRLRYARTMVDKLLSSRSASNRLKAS

What is called inhibition is the change of the read-out against control, counted positive when it falls. For `CN1CCN(c2ccc(/C=C/c3n[nH]c4cc(C=C5C(=O)Nc6ccccc65)ccc34)cn2)CC1` [Compound 32], the inhibition at 10 µM in experiment [1] and in experiment [2] was under 50% in each case. In addition, the GI50 in experiment [3] and in experiment [4] was under 5 µM in each case.
